Laboratory results as given in US12053777B2, “Devices and methods for detecting cancerous cells” (Academia Sinica, priority 2019, dated 2024).

How the values were obtained:
Experiment in all cases: Capture of cells by sulfated octasaccharide-coated magnetic beads on microfluidic chip
Format in all cases: cell-based
[1] = test system: HCT8
Description: (§1) Preparation of magnetic beads pre-coated with a sulfated octasaccharide. The surface of magnetic beads was respectively coated with the sulfated octasaccharides of the present invention (e.g., HS1, HS12 and etc) with three different concentrations (1 μM, 10 μM and 100 μM). Briefly, sulfated octasaccharides were first incubated with Dynabeads® MyOne™ Streptavidin T1 (˜7-10×10^9 beads/mL, Ø=1 μm, Invitrogen Co., USA) in a volume ratio of 1:10 for 30 min. Then beads were collected by using a magnet for 5 min, followed by discarding the supernatant and washing thrice by using 1-mL deionized (DI) water. Finally, the coated beads were suspended in the equal volume of DI water as the initial volume of Dynabeads® taken from the vial.
(§2) The microfluidic chip constructed above was employed to capture cancerous cells. Briefly, 2×10^5 cells from various types of cancerous cell lines were suspended in 100 μL×phosphate buffered saline (PBS) buffer and loaded into six capture chambers, respectively. 10 μL of different concentrations of sulfated octasaccharides coated beads were manually pipetted in the capture chambers, and gently mixed with cells by the micropumps for 15 min. After incubation, the cells were identified and bound by the magnetic beads pre-coated with the sulfated octasaccharides of formula (I) of the present invention. Then, these captured cells were collected with a magnetic force and washed by 1×PBS buffer. After isolating, the beads and captured cells were suspended in 100 μL 1×PBS buffer, and finally loaded into a hemocytometer to calculate the capture rates.
(§3) In a pre-test, total of 8 cancer cell lines (i.e., MMNK-1, SNU-478, HuCCT-1, Huh-28, KKU-100, HepG2, BxPC3, and HCT8) were respectively loaded into the microsystem and incubated with the magnetic beads, then the captured cells were collected with a magnetic force, and finally loaded into a hemocytometer to calculate the capture rates.

[2] = test system: BxPC3
Description: as §1, §2, §3

[3] = test system: SNU-478; settings: SNU-478 cells
Description: as §1, §2, §3

[4] = test system: HepG2
Description: as §1, §2, §3

[5] = test system: MMNK-1; settings: for capture rate: MMNK-1 cells; for capture rate, in words: normal cells (MINK-1)
Description: as §1, §2, §3

[6] = test system: HuCCT-1; settings: for capture rate: HuCCT-1 cells; for capture rate, in words: metastasized CCA cells (HuCCT-1)
Description: as §1, §2, §3

[7] = test system: KKU-100; settings: KKU-100 cells
Description: as §1, §2, §3

[8] = test system: Huh-28; settings: for specificity of capture among the eight cell lines: Huh28, a cholangiocarcinoma (CCA) cell line, versus the other cell lines; for capture rate: Huh-28 cells
Description: as §1, §2, §3
FIG. 2 illustrates that the cancer cells, Huh-28, could be successfully captured by magnetic beads pre-coated with HS 1 of 100 μM. Huh-28 cells before being captured by magnetic beads are depicted in FIG. 2, panel a. After well mixing Huh-28 cells and beads for 30 mins, cells were surrounded by beads (FIG. 2, panel b). The supernatant collection through an isolation process by magnetic force after 30-min incubation is depicted in FIG. 2, panel c.

[9] = test system: Huh-28; settings: Huh-28 cells; EpCAM-coated beads

Molecule	capture rate ([1]; beads coated with HS at 1 μM) [%]	capture rate ([1]; beads coated with HS at 10 μM) [%]	capture rate ([1]; beads coated with HS at 100 μM) [%]	capture rate ([2]; beads coated with HS at 1 μM) [%]	capture rate ([2]; beads coated with HS at 10 μM) [%]	capture rate ([2]; beads coated with HS at 100 μM) [%]	capture rate ([3]; beads coated with HS at 1 μM) [%]	capture rate ([3]; beads coated with HS at 10 μM) [%]	capture rate ([3]; beads coated with HS at 100 μM) [%]	capture rate ([4]; beads coated with HS at 1 μM) [%]	capture rate ([4]; beads coated with HS at 10 μM) [%]	capture rate ([4]; beads coated with HS at 100 μM) [%]	capture rate ([5]; beads coated with HS at 1 μM) [%]	capture rate ([5]; beads coated with HS at 10 μM) [%]	capture rate ([5]; beads coated with HS at 100 μM) [%]	capture rate, in words [5]	capture rate ([6]; beads coated with HS at 1 μM) [%]	capture rate ([6]; beads coated with HS at 10 μM) [%]	capture rate ([6]; beads coated with HS at 100 μM) [%]	capture rate, in words [6]	further results
NCCCCCO[C@@H]1O[C@H](C(=O)O)[C@@H](O[C@H]2O[C@H](COS(=O)(=O)O)[C@@H](O[C@@H]3O[C@@H](C(=O)O)[C@@H](O[C@H]4O[C@H](COS(=O)(=O)O)[C@@H](O[C@@H]5O[C@H](C(=O)O)[C@@H](O[C@H]6O[C@H](COS(=O)(=O)O)[C@@H](O[C@@H]7O[C@@H](C(=O)O)[C@@H](O[C@H]8O[C@H](COS(=O)(=O)O)[C@@H](O)[C@H](O)[C@H]8NS(=O)(=O)O)[C@H](O)[C@H]7OS(=O)(=O)O)[C@H](O)[C@H]6NS(=O)(=O)O)[C@H](O)[C@H]5OS(=O)(=O)O)[C@H](O)[C@H]4NS(=O)(=O)O)[C@H](O)[C@H]3OS(=O)(=O)O)[C@H](O)[C@H]2NS(=O)(=O)O)[C@H](O)[C@H]1OS(=O)(=O)O [HS 12]	16 ± 3	13 ± 0	9 ± 2	16 ± 6	11 ± 3	7 ± 3	20 ± 5	17 ± 7	16 ± 8	14 ± 1	11 ± 4	9 ± 6	55 ± 7	47 ± 20	16 ± 8	relatively low	5 ± 1	5 ± 2	4 ± 2	relatively low	capture rate ([7]; beads coated with HS at 1 μM): 42 ± 3%; capture rate ([7]; beads coated with HS at 10 μM): 44 ± 2%; capture rate ([7]; beads coated with HS at 100 μM): 41 ± 11%; specificity of capture among the eight cell lines [8]: highly specific to Huh28; capture rate ([8]; beads coated with HS at 1 μM): 66 ± 6%; capture rate ([8]; beads coated with HS at 10 μM): 67 ± 3%; capture rate ([8]; beads coated with HS at 100 μM): 73±4%
CC(=O)NC1C(O)[C@H](O)C(CO)O[C@@H]1O[C@@H]1C(C(=O)[O-])O[C@@H](O[C@@H]2C(CO)O[C@H](O[C@@H]3C(C(=O)[O-])O[C@@H](O[C@@H]4C(CO)O[C@H](O[C@@H]5C(C(=O)[O-])O[C@@H](O[C@@H]6C(CO)O[C@H](O[C@@H]7C(C(=O)[O-])O[C@@H](OCCCCCN)C(O)C7O)C(NC(C)=O)C6O)C(O)C5O)C(NC(C)=O)C4O)C(O)C3O)C(NC(C)=O)C2O)C(O)C1O.[Na+].[Na+].[Na+].[Na+] (stereo partly drawn) [HS 1, 5-Aminopentyl (2-acetamido-2-deoxy-α-D-glucopyranosyl)-(1→4)-α-L-idopyranosiduronyl-(1→4)-(2-acetamido-2-deoxy-α-D-glucopyranosyl)-(1→4)-α-L-idopyranosiduronyl-(1→4)-(2-acetamido-2-deoxy-α-D-glucopyranosyl)-(1→4)-α-L-idopyranosiduronyl-(1→4)-(2-acetamido-2-deoxy-α-D-glucopyranosyl)-(1→4)-α-L-idopyranosiduronate]	18 ± 5	14 ± 4	13 ± 3	15 ± 5	18 ± 4	13 ± 7	23 ± 13	20 ± 8	22 ± 7	12 ± 0	16 ± 6	10 ± 4	58 ± 11	52 ± 6	34 ± 5	relatively low	4 ± 1	6 ± 2	4 ± 1	relatively low	capture rate ([7]; beads coated with HS at 1 μM): 40 ± 10%; capture rate ([7]; beads coated with HS at 10 μM): 46 ± 1%; capture rate ([7]; beads coated with HS at 100 μM): 51 ± 2%; specificity of capture among the eight cell lines [8]: highly specific to Huh28; capture rate ([8]; beads coated with HS at 1 μM): 65 ± 20%; capture rate ([8]; beads coated with HS at 10 μM): 70 ± 10%; capture rate ([8]; beads coated with HS at 100 μM): 78 ± 14%; capture rate ([8]; beads coated with HS at 100 μM, listed as HS1): 78±14%; capture of Huh-28 cells seen in photographs (FIG. 2) ([8]; beads coated at 100 μM, 30-min incubation, few cells left in supernatant): Almost all of the Huh-28 cells were captured and isolated
EpCAM: epithelial cell adhesion molecule (EpCAM)-coated beads, comparison capture reagent (protein, UniProt P16422 24-314, looked up, coated on beads, epithelial cell adhesion molecule (EpCAM)-coated beads, comparison capture reagent) Epithelial cell adhesion …: QEECVCENYKLAVNCFVNNNRQCQCTSVGAQNTVICSKLAAKCLVMKAEMNGSKLGRRAKPEGALQNNDGLYDPDCDESGLFKAKQCNGTSMCWCVNTAGVRRTDKDTEITCSERVRTYWIIIELKHKAREKPYDSKSLRTALQKEITTRYQLDPKFITSILYENNVITIDLVQNSSQKTQNDVDIADVAYYFEKDVKGESLFHSKKMDLTVNGEQLDLDPGQTLIYYVDEKAPEFSMQGLKAGVIAVIVVVVIAVVAGIVVLVISRKKRMAKYEKAEIKEMGEMHRELNA																					capture rate ([1]; EpCAM-coated beads): 22 ± 3%; capture rate ([2]; EpCAM-coated beads): 45 ± 6%; capture rate ([3]; EpCAM-coated beads): 74 ± 6%; capture rate ([4]; EpCAM-coated beads): 44 ± 7%; capture rate ([5]; EpCAM-coated beads): 58 ± 8%; capture rate ([6]; EpCAM-coated beads): 67 ± 11%; capture rate ([7]; EpCAM-coated beads): 51 ± 5%; capture rate [9]: 58±19%
